Assay results as given in PubChem BioAssay (NCI).
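Dose response: 5 concentrations. Exposure: 48 h. Format: 96-well plates. Endpoint: linear interpolation; highest concentration if not reached. Definition used: TGI = concentration required for complete inhibition of growth.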

Experiments:
Experiment in all cases: NCI-60 cell line screen, 48 h
[1] = tested on: DMS 273 small cell lung
[2] = tested on: UO-31 renal
[3] = tested on: UACC-62 melanoma
[4] = tested on: RPMI-8226 leukemia
[5] = tested on: NCI-H23 lung
[6] = tested on: HCT-116 colon
[7] = tested on: CCRF-CEM leukemia
[8] = tested on: DMS 114 small cell lung
[9] = tested on: ACHN renal
[10] = tested on: MOLT-4 leukemia
[11] = tested on: HL-60(TB) leukemia
[12] = tested on: SK-MEL-2 melanoma
[13] = tested on: HOP-62 NSCLC
[14] = tested on: SNB-75 CNS
[15] = tested on: LXFL 529 NSCLC
[16] = tested on: SK-MEL-28 melanoma
[17] = tested on: M14 melanoma
[18] = tested on: M19-MEL melanoma
[19] = tested on: 786-0 renal
[20] = tested on: A498 renal
[21] = tested on: SR leukemia
[22] = tested on: SN12C renal
[23] = tested on: SF-268 CNS
[24] = tested on: NCI-H226 lung
[25] = tested on: DLD-1 colon
[26] = tested on: MALME-3M melanoma
[27] = tested on: HCC-2998 colon
[28] = tested on: RXF-631 renal
[29] = tested on: IGROV1 ovarian
[30] = tested on: K-562 leukemia
[31] = tested on: SF-539 CNS
[32] = tested on: XF 498 CNS
[33] = tested on: SK-OV-3 ovarian
[34] = tested on: CAKI-1 renal
[35] = tested on: COLO 205 colon
[36] = tested on: HOP-92 NSCLC
[37] = tested on: NCI-H522 lung
[38] = tested on: OVCAR-4 ovarian
[39] = tested on: SNB-78 CNS
[40] = tested on: OVCAR-8 ovarian
[41] = tested on: OVCAR-3 ovarian
[42] = tested on: NCI-H460 lung
[43] = tested on: UACC-257 melanoma
[44] = tested on: RXF 393 renal
[45] = tested on: U251 CNS
[46] = tested on: SF-295 CNS
[47] = tested on: KM12 colon
[48] = tested on: HT29 colon
[49] = tested on: SNB-19 CNS
[50] = tested on: HOP-18 NSCLC
[51] = tested on: EKVX NSCLC
[52] = tested on: KM20L2 colon
[53] = tested on: OVCAR-5 ovarian
[54] = tested on: LOX IMVI melanoma
[55] = tested on: HCT-15 colon
[56] = tested on: TK-10 renal
[57] = tested on: A549 NSCLC
[58] = tested on: SK-MEL-5 melanoma
[59] = tested on: SW-620 colon

SMILES: CNC1CC(n2cc(C)c(=O)[nH]c2=O)OC1CO (stereo not drawn)
- TGI [1]: > 100 µM
- TGI [2]: > 100 µM
- TGI [3]: > 100 µM
- TGI [4]: > 100 µM
- TGI [5]: > 100 µM
- TGI [6]: > 100 µM
- TGI [7]: > 100 µM
- TGI [8]: > 100 µM
- TGI [9]: > 100 µM
- TGI [10]: > 100 µM
- TGI [11]: > 100 µM
- TGI [12]: > 100 µM
- TGI [13]: > 100 µM
- TGI [14]: > 100 µM
- TGI [15]: > 100 µM
- TGI [16]: > 100 µM
- TGI [17]: > 100 µM
- TGI [18]: > 100 µM
- TGI [19]: > 100 µM
- TGI [20]: > 100 µM
- TGI [21]: > 100 µM
- TGI [22]: > 100 µM
- TGI [23]: > 100 µM
- TGI [24]: > 100 µM
- TGI [25]: > 100 µM
- TGI [26]: > 100 µM
- TGI [27]: > 100 µM
- TGI [28]: > 100 µM
- TGI [29]: > 100 µM
- TGI [30]: > 100 µM
- TGI [31]: > 100 µM
- TGI [32]: > 100 µM
- TGI [33]: > 100 µM
- TGI [34]: > 100 µM
- TGI [35]: > 100 µM
- TGI [36]: > 100 µM
- TGI [37]: > 100 µM
- TGI [38]: > 100 µM

SMILES: COc1ccc(C2NC(c3ccc(OC)cc3)C(C)C(=O)C2C)cc1 (stereo not drawn)
- TGI [1]: > 100 µM
- TGI [2]: > 100 µM
- TGI [39]: > 100 µM
- TGI [3]: > 100 µM
- TGI [4]: > 100 µM
- TGI [40]: > 100 µM
- TGI [41]: > 100 µM
- TGI [5]: > 100 µM
- TGI [42]: > 100 µM
- TGI [6]: > 100 µM
- TGI [7]: > 100 µM
- TGI [8]: > 100 µM
- TGI [9]: > 100 µM
- TGI [43]: > 100 µM
- TGI [10]: > 100 µM
- TGI [11]: > 100 µM
- TGI [44]: > 100 µM
- TGI [12]: > 100 µM
- TGI [45]: > 100 µM
- TGI [13]: > 100 µM
- TGI [46]: > 100 µM
- TGI [47]: > 100 µM
- TGI [14]: > 100 µM
- TGI [15]: > 100 µM
- TGI [16]: > 100 µM
- TGI [17]: > 100 µM
- TGI [18]: > 100 µM
- TGI [19]: > 100 µM
- TGI [48]: > 100 µM
- TGI [49]: > 100 µM
- TGI [20]: > 100 µM
- TGI [22]: > 100 µM
- TGI [50]: > 100 µM
- TGI [51]: > 100 µM
- TGI [23]: > 100 µM
- TGI [25]: > 100 µM
- TGI [26]: > 100 µM
- TGI [27]: > 100 µM
- TGI [28]: > 100 µM
- TGI [29]: > 100 µM
- TGI [30]: > 100 µM
- TGI [31]: > 100 µM
- TGI [33]: > 100 µM
- TGI [52]: > 100 µM
- TGI [53]: 97.2 µM
- TGI [54]: > 100 µM
- TGI [55]: > 100 µM
- TGI [35]: > 100 µM
- TGI [36]: > 100 µM
- TGI [56]: > 100 µM
- TGI [37]: > 100 µM
- TGI [38]: > 100 µM

SMILES: Cc1ccc(/C=C2\CCCC(C(NO)c3ccc(C)cc3)C2=NO)cc1 (stereo not drawn)
- TGI [1]: > 100 µM
- TGI [2]: > 100 µM
- TGI [57]: > 100 µM
- TGI [39]: > 100 µM
- TGI [3]: > 100 µM
- TGI [4]: 48.8 µM
- TGI [40]: > 100 µM
- TGI [41]: 43.7 µM
- TGI [5]: 73.2 µM
- TGI [42]: 62.6 µM
- TGI [6]: > 100 µM
- TGI [7]: 49.8 µM
- TGI [8]: > 100 µM
- TGI [9]: > 100 µM
- TGI [43]: > 100 µM
- TGI [10]: 42.6 µM
- TGI [11]: 40.1 µM
- TGI [44]: 71.9 µM
- TGI [12]: > 100 µM
- TGI [45]: > 100 µM
- TGI [13]: > 100 µM
- TGI [58]: 50.2 µM
- TGI [47]: 45.1 µM
- TGI [14]: 98.2 µM
- TGI [15]: > 100 µM
- TGI [16]: 67.7 µM
- TGI [17]: 85.4 µM
- TGI [18]: > 100 µM
- TGI [19]: > 100 µM
- TGI [48]: 37.9 µM
- TGI [49]: > 100 µM
- TGI [20]: > 100 µM
- TGI [22]: 38.8 µM
- TGI [50]: > 100 µM
- TGI [51]: > 100 µM
- TGI [23]: 66.6 µM
- TGI [25]: > 100 µM
- TGI [26]: > 100 µM
- TGI [27]: 62 µM
- TGI [28]: 93.5 µM
- TGI [29]: > 100 µM
- TGI [30]: > 100 µM
- TGI [31]: > 100 µM
- TGI [32]: > 100 µM
- TGI [33]: > 100 µM
- TGI [52]: 42.5 µM
- TGI [34]: > 100 µM
- TGI [55]: > 100 µM
- TGI [59]: > 100 µM
- TGI [35]: 38.5 µM
- TGI [56]: > 100 µM
- TGI [37]: 76.1 µM
- TGI [38]: 45.4 µM
